Reference: article PMC12505902, “Inhibitors of trehalose-6-phosphate synthase activity in fungal pathogens compromise thermal tolerance pathways” (mBio, 2025)

What was measured:
Format in all cases: cell-based
C. glabrata = experiment: Fungicidal spot assay on compound-free YPD plates
Description: Fig 4 4456dh inhibits the growth of Candida and Cryptococcus species. […] 4456dh was administered at the concentrations indicated. Cultures were grown in YPD at the listed temperatures for 48 hours for Candida species and 72 hours for Cryptococcus species. Experimental temperatures reflect the temperatures at which the fungi experience heat stress. Left: relative growth of treated samples was calculated by averaging technical triplicates and normalizing the OD600 of each treated well to the average OD600 of the untreated WT controls, after the absorbance due to the compound was subtracted. The MIC80 values, calculated based on the OD600 values, are indicated in the white text on each heat map. […]
124 technical replicates. Growth, as determined by a reading of absorbance at 600 nm, was
125 normalized to untreated controls and was corrected for the absorbance of 4456dh in the YPD […]
(§1) 129 overnight cultures was quantified by measuring the OD600 and corrected for the background
130 absorbance of the medium. Antifungal potency for 4456dh was assessed by minimum inhibitory […]
(§2) 137 replicates. Growth, as determined by a reading of absorbance at 600 nm, was normalized to
(§3) 138 untreated controls and was corrected for the absorbance of 4456dh in the YPD medium. […]
(§4) 139 minimum inhibitory concentration causing 80% growth reduction, or MIC80, was determined based […]

C. neoformans (H99) = experiment: MIC dose-response assay in YPD; conditions: Cryptococcus neoformans
Description: (§5) Fig 4 4456dh inhibits the growth of Candida and Cryptococcus species. Two-fold dose response assays were performed against (A) C. albicans at 42°C and C. auris at 39°C, (B) C. glabrata at 42°C, and (C) C. neoformans, C. deneoformans, and C. gattii at 37°C. 4456dh was administered at the concentrations indicated. Cultures were grown in YPD at the listed temperatures for 48 hours for Candida species and 72 hours for Cryptococcus species. Experimental temperatures reflect the temperatures at which the fungi experience heat stress. Left: relative growth of treated samples was calculated by averaging technical triplicates and normalizing the OD600 of each treated well to the average OD600 of the untreated WT controls, after the absorbance due to the compound was subtracted. The MIC80 values, calculated based on the OD600 values, are indicated in the white text on each heat map. Right: representative spot assays show the ability of cells to grow after exposure to 4456dh and indicate fungicidal activity of 4456dh. TEXT PRINTED IN THE PICTURE: (A) 4456dh: C. albicans 42 °C: 13 mM; C. auris 39 °C: 7 mM | (B) 4456dh: C. glabrata 42 °C: 7.8 μM | (C) 4456dh: C. neoformans 37 °C: 7 mM; C. deneoformans 37 °C: 3 mM; C. gattii 37 °C: 7 mM DOUBTS OF THE COPYIST ABOUT THIS PICTURE: 4456dh, all panels: the picture prints no measure name with the white values on the heat maps, so each value is given only with its organism and temperature
(§6) We next tested the activity of 4456dh on Cryptococcus species at 37°C.
(§7) 123 hours. […]
(§8) 126 medium. Growth was plotted as a heat map using Excel.
(§9) 127 Wild-t y pe C. neoformans strains H99, wild-type C. deneoformans JEC21 and wild- t y pe C. gattii
(§10) 128 R265 were cultured overnight in YPD (yeast-peptone- dextrose) medium at 30 °C. Growth of the
as §1
(§11) 130 absorbance of the medium. Antifungal potency for 4456dh was assessed by minimum inhibitory
(§12) 131 concentration (MIC) dose-response assays performed under standard Clinical and Lab Standards
(§13) 132 Institute (CLSI) conditions. A volume of 125 µL from each cell suspension was dispensed into the
(§14) 133 wells of 96-well flat-bottom microtiter plates (Corning). An additional 25 µL of 4456dh from a series
(§15) 134 of dilutions from the 157 mM stock solution prepared in water was added to each well. Following […]
as §2, §3, §4
(§16) 157 Optical density (OD600) was determined with an Infinite PRO plate reader ( Tecan). […]

C. gattii (R265) = experiment: MIC dose-response assay in YPD; conditions: Cryptococcus gattii
Description: as §5, §6, §7, §8, §9, §10, §1, §11, §12, §13, §14, §15, §2, §3, §4, §16

[1] = Supplemental Table 5, This publication

Cn1cc(-c2csc(NC(=O)Cc3ccccn3)n2)cn1 [Compound 4456dh]
fungicidal activity (C. glabrata; 30°C exposure): no MIC or fungicidal activity was detected | concentration from which fungicidal activity starts (C. glabrata; 42°C exposure): approximately 7.8 µM | MIC80 (C. neoformans (H99); 37°C, YPD, 72 hours): 7 mM | MIC80 (C. neoformans (H99); [1]): 2780 µg/mL | MIC80 (C. gattii (R265); 37°C, YPD, 72 hours): 7 mM | MIC80 (C. gattii (R265); [1]): 2780 µg/mL
